According to patent US11866416B2, “Streptococcus mutans glucosyl transferase inhibitors for dental caries therapy” (UAB Research Foundation, priority 2018, dated 2024):
Like-named read-outs stand apart in the source and are kept apart here.

How the values were obtained:
[1] = test system: S. mutans biofilm; assay: S. mutans biofilm formation and inhibition assay (96-well plates, crystal violet); format: cell-based, Streptococcus mutans; conditions: for IC50: Streptococcus mutans
[2] = test system: S. mutans Gtfs; assay: Gtf zymographic assay with SDS-PAGE; format: biochemical, Streptococcus mutans; conditions: for Gtf enzyme inhibitory activity, glucan bands in zymogram / production of Gtfs, protein level on SDS-PAGE: 50 μM added to cultures
Protocol: A well-established zymographic assay was used to determine enzymatic activity of Gtfs (Mattos-Graner et al. (2004) J. Clin. Microbiol. 42, […]). In brief, overnight S. mutans UA159 cultures were diluted 1:100 in fresh 5 mL THB with 50 μL of selective compounds at a series of concentrations. Treated bacteria were grown to OD470 of 1.0, and spun down by centrifugation at 4° C., and culture supernatants were collected and filtered through a 0.22-μm-pore-size filter membrane to remove residual bacterial cells and dialyzed at 4° C. against 0.02 M sodium phosphate buffer (pH 6.8), with 10 μM phenylmethylsulfonyl fluoride (PMSF), followed by a second dialysis against 0.2 mM sodium phosphate containing 10 μM PMSF. After dialysis, 4 mL of samples were concentrated to 40 μL by 100K Amicon Ultra-4 centrifugal filter (Merck Millipore Ltd.). For electrophoresis and zymographic analysis, 10 μL of each concentrated culture supernatant was applied to 8% SDS-PAGE in duplicate. One gel was used for protein staining with Coomassie blue dye, while the other one was subjected to zymographic assay as described (Mattos-Graner et al. (2004) J. Clin. Microbiol. 42, […]). The resultant white opaque glucan bands were visualized against a black background.
Inhibition of the activity of Gtfs determined by zymographic assays. Well established zymographic assay was used to determine enzymatic activity of Gtfs. In brief, overnight S. mutans UA159 cultures were diluted 1:100 in fresh 5 mL THB. Bacteria were grown to OD470 of 1.0, and spun down by centrifugation at 4° C. and culture supernatants were collected and filtered through a 0.22-μm-pore-size filter membrane to remove residual bacterial cells and dialyzed at 4° C. against 0.02 M sodium phosphate buffer (pH 6.8), with 10 μM phenylmethylsulfonyl fluoride (PMSF), followed by a second dialysis against 0.2 mM sodium phosphate containing 10 μM PMSF. After dialysis, 4 mL of samples were concentrated to 40 μL by 100K Amicon Ultra-4 centrifugal filter (Merk Millipore Ltd.). For electrophoresis and zymographic analysis, 10 μL of each concentrated culture supernatant was applied to 8% SDS-PAGE in duplicate. One gel was used for protein staining with Coomassie blue dye, while the other one was subjected to zymographic assay. For zymogram analysis, following electrophoretic separation, gels were washed twice for 15 min each with renaturing buffer containing 2.5% Triton X-100. Gels were then incubated for 18 h at 37° C. with 0.2 M sodium phosphate buffer (pH 6.5) containing 0.2% dextran T70, 5% sucrose, and varying concentrations of the small molecule inhibitors. The reactions were stopped by washing gels with distilled water at 4° C. for 10 min, and digital images of the resultant white opaque glucan bands were visualized against a black background and captured using a digital camera.
Inhibition of the activity of Gtfs determined by zymographic assays. A well-established zymographic assay was used to determine enzymatic activity of Gtfs (Mattos-Graner, R. O., Napimoga, M. H., Fukushima, K., Duncan, M. J., Smith, D. J., J Clin Microbiol, 2004, 42, 4586). In brief, overnight S. mutans UA159 cultures were diluted 1:100 in fresh 5 mL THB with 50 μL of selective compounds at a series of concentrations. Treated bacteria were grown to OD470 of 1.0, and spun down by centrifugation at 4° C., and culture supernatants were collected and filtered through a 0.22-μm-pore-size filter membrane to remove residual bacterial cells and dialyzed at 4° C. against 0.02 M sodium phosphate buffer (pH 6.8), with 10 μM phenylmethylsulfonyl fluoride (PMSF), followed by a second dialysis against 0.2 mM sodium phosphate containing 10 μM PMSF. After dialysis, 4 mL of samples were concentrated to 40 μL by 100K Amicon Ultra-4 centrifugal filter (Merk Millipore Ltd.). For electrophoresis and zymographic analysis, 10 μL of each concentrated culture supernatant was applied to 8% SDS-PAGE in duplicate. […]

[3] = target: GtfB catalytic domain (Streptococcus mutans serotype c (strain ATCC 700610 / UA159), UniProt P08987); assay: OctetRed96 binding kinetics, GtfB; conditions: 1:1 binding model
Chain of GtfB catalytic domain (P08987 268-1074 limits assumed): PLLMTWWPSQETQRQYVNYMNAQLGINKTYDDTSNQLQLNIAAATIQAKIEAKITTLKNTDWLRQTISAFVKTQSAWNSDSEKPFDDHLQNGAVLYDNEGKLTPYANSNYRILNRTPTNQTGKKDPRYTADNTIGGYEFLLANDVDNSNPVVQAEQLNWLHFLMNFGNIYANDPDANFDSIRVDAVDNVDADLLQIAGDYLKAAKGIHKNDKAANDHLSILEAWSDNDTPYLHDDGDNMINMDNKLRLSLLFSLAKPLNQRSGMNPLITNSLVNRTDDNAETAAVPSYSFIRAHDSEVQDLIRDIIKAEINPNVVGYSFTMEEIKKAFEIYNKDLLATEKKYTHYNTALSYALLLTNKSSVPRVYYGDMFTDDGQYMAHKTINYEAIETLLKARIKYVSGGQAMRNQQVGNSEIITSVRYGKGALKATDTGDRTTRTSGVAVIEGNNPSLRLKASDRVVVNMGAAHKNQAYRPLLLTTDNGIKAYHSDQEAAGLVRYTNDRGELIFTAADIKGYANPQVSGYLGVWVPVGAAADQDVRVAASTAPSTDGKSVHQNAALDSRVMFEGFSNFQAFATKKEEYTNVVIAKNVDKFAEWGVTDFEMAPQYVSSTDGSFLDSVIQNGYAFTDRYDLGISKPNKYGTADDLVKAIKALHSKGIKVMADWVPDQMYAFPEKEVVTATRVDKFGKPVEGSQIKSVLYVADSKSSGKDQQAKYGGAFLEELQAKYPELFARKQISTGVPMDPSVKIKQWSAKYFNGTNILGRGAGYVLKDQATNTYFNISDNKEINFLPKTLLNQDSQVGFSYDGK
Description: To determine if the inhibition is attributed by the binding of the lead compound to the enzymes, the OctetRed96 system was used to characterize protein-small molecule binding kinetics. The his-tagged catalytic domains of GtfB and GtC were immobilized separately onto an anti-penta-HIS (HIS1K) biosensor which consists of high affinity, high specificity penta-his antibody pre-immobilized on a fiber optic biosensor. This sensor was then exposed to varying concentrations of #G43.
Expression and purification of GtfB and GtfC catalytic domains. The DNA fragment coding for either GtfB catalytic (residues 268 aa-1074 aa) or GtfC-catalytic (residues 295 aa-1103 aa) was PCR amplified with primer sets of GtfB-BamH1-F and GtfB-Xho1-R, GtfC-BamH1-F and GtfC-Xhol1-R respectively using S. mutans genomic DNA as a template. Each amplified fragment was cloned into pET-sumo vector respectively and transformed in Escherichia coli BL21(DE3). The recombinant strain grown to OD600=0.8 in LB medium was induced with 0.1 mM IPTG at 18° C. overnight. Cell lysates prepared form the overnight grown E. coli cells were subjected to protein purification using HiTrap™ Column (Ni^2+ affinity) followed by gel filtration experiments as described (Zhu, F. et al. Structural and functional analysis of a new subfamily of glycosyltransferases required for glycosylation of serine-rich streptococcal adhesins. The Journal of biological chemistry 286, 27048-27057, doi:10.1074/jbc.M110.208629 (2011); Zhang, H. et al. The highly conserved domain of unknown function 1792 has a distinct glycosyltransferase fold. Nature communications 5, 4339, doi:10.1038/ncomms5339 (2014)).
Octet Red analysis. Octet full kinetic binding analysis was performed for binding of #G43 to GtfB and GtfC. The rate constant, KD, was determined using the Octet® Red96 system (ForteBio, Menlo Park, Calif.). Phosphate buffer with 3.5% (w/v) DMSO was used. The proteins were captured on dip-and-read Anti-Penta-HIS (HIS1K) Biosensor. These consist of high affinity, high specificity Penta-His antibody from Qiagen pre-immobilized on a fiber optic biosensor. The binding of #G43 at 3-fold serial dilutions in phosphate buffer from 200, 66.6, 22.2, 7.4, 2.5 to 0 μM was assessed. The ForteBio Octet analysis software (ForteBio, Menlo Park, Calif.) was used to generate the sensorgram and the accuracy of the analysis.
OctetRed analysis. […] GtfC and GtfB were purified. The Octet® Red96 system (ForteBio, Menlo Park, Calif.) was used to determine the rate constant, KD. […] Sensorgrams and the accuracy of the analysis was calculated using the ForteBio OctetRed analysis software (ForteBio, Menlo Park, Calif.).

[4] = test system: S. mutans; assay: microbe, parasite or virus in culture; format: cell-based, Streptococcus mutans; conditions: for IC50: Streptococcus mutans, Table 7, synthesized analogs of compound 9, read-out: Growth IC50; for SI (selectivity index): Table 7, growth IC50 value divided by biofilm IC50 value
In short: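 Mid-exponential cultures (OD470 0.6) in THB were exposed to compound concentrations for 16 h, with growth read at OD470 and normalised to 1% DMSO control (100%). CFU/mL were also counted after 24 h at 37 °C and compared with the DMSO control.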

[5] = test system: S. mutans colonization; assay: Sucrose-dependent Drosophila colonization model; format: in vivo; conditions: chalcones; 100 μM or 50 μM
Protocol: Briefly, Gfp tagged S. mutans bacteria were infected into flies along with the treatment appropriate compound at 100 μM in a feeding-assay.
Mid-log phase THB cultures of Gfp-tagged (green fluorescent protein) S. mutans UA159 were spun down and resuspended in a solution containing 5% sucrose and 50 μM of the compound. 100 μL of resuspended cells were spotted onto a sterile filter that was placed on the surface of 5 mL of solidified 5% sucrose agar in a plastic vial. The vials were allowed to dry at room temperature for 30 minutes prior to addition of flies. Male Canton S flies (1-3 days old) were treated with antibiotics for 2 days and starved for 3 hours prior to the addition to vials supplied with S. mutans (10 flies per vial). The colonization of flies by Gfp-tagged strains were analyzed by Nikon elipse 90i microscope, equipped with an Epi-fluorescence and NIS elements AR imaging system.
The intensity of the fluorescence was measured in the guts of the flies fed with the Gfp tagged bacteria after 7 days of infection.
Cultures of Gfp-tagged (green fluorescent protein) S. mutans UA159 grown to middle log phase were spun down and re-suspended in a solution containing 5% sucrose and 50 μM of each compound. 100 μL of re-suspended cells were aliquoted onto a sterile filter that was placed on the surface of 5 mL of solidified 5% sucrose agar in a plastic vial. Upon the drying of the vials at room temperature for 30 min, the flies were introduced to the vessels. Male Canton S flies (1-3 days old) were treated with antibiotics for 2 days and starved for 3 h before the addition to vials supplied with S. mutans (10-14 flies per vial). Nikon elipse 90i microscope, equipped with an Epi-fluorescence and NIS elements AR imaging system was used to analyze the colonization of flies by Gfp-tagged strains.

[6] = Table 7, synthesized analogs of compound 9, read-out: Biofilm IC50
[7] = read-out: S. mutans biofilm IC50

Row | Structure (SMILES) | inhibition of S. mutans biofilms, biofilm assay and fluorescence microscopy ([1]; concentrations up to 200 μM) | glucan bands in zymographic assay ([2]; 50 μM, Gtfs from S. mutans UA159 supernatants) | Kd [3] [µM] | IC50 [1, 6] [µM] | IC50 [1, 7] [µM] | selectivity (index / fold) for biofilm over growth [4] | IC50 [4] [µM] | SI (selectivity index) [4] | Gtf enzyme inhibitory activity, glucan bands in zymogram [2] | fluorescence of Gfp tagged S. mutans in fly guts after 7 days [5] | melting point [°C] | production of Gtfs, protein level on SDS-PAGE [2]
1 | O=C(Nc1ccccc1)c1cc2cc([N+](=O)[O-])ccc2s1 [#G43-D] | did not inhibit | significantly reduced the ability to inhibit the glucan production | 68 |  |  |  |  |  |  |  |  | 
2 | O=C(/C=C/c1ccc(O)cc1O)c1cccc(O)c1 [Compound 9a, (E)-3-(2,4-Dihydroxyphenyl)-1-(3-hydroxyphenyl)-2-propen-1-one] |  |  |  | 68 ± 3 | 68 | about 10 | 639 ± 25 | 9.39 | did not exhibit a drastic effect | marked reduction in fluorescence | 73 to 75 | 
3 | O=C(/C=C\c1ccc(O)cc1O)c1cccc(O)c1 [Compound 9b, (Z)-3-(2,4-Dihydroxyphenyl)-1-(3-hydroxyphenyl)-2-propen-1-one] |  |  |  | 44 ± 5 | 44 | about 10 | 468 ± 16 | 10.6 | exhibit the best inhibitory effects | marked reduction in fluorescence | 164 to 167 | showed an inhibitory effect on the production of Gtfs
4 | O=C(/C=C/c1ccc(O)cc1O)c1ccc(O)cc1 [Compound 18b, (E)-3-(2,4-Dihydroxyphenyl)-1-(4-hydroxyphenyl)-2-propen-1-one] |  |  |  | 162 ± 21 |  |  | 1060 ± 118 | 6.6 | did not exhibit a drastic effect |  | 185 to 188 | showed an inhibitory effect on the production of Gtfs
5 | O=C(/C=C\c1ccc(O)cc1O)c1ccc(O)cc1 [Compound 21b, (Z)-3-(2,4-Dihydroxyphenyl)-1-(4-hydroxyphenyl)-2-propen-1-one] |  |  |  | 77 ± 8 |  |  | 782 ± 96 | 10.1 | exhibit the best inhibitory effects |  | 185 to 187 | showed an inhibitory effect on the production of Gtfs
